Patent US12023330B2, “Use of manzamines as antiproliferative agent” (priority 2020, dated 2024)

Columns and labels:
Type in all cases: cell-based, human
C33A cells [1] = assay: Cell cycle distribution by flow cytometry (PI); conditions: 4 μM, 48 and 72 hours
Description: (§1) Differential Activation of G1 Phase Arrest and Apoptosis by Manzamine A (1). To understand the mechanism of manzamine A (1)-mediated cell growth inhibition, we analyzed the cell cycle distribution by flow cytometry in C33A, HeLa, SiHa, and CaSki cell lines. […] FIGS. 3A and 3B show a representation of manzamine A (1) effect on cervical cancer cells treated with 4 μM concentration. […] The values represent standard error from the mean (mean±SE). DMSO serves as control. The significance level represents; *p<0.05; **p<0.001; ***[…]; and ns=non-significant. […] Particularly at 4 μM concentration, the percentage of G0/G1 cell population in SiHa and CaSki increased to 1.2 fold (p=0.001) and 1.4 fold (p=0.011) at 24 hours, and 1.2 fold (p=0.03) and 1.5 fold (p=0.006) at 48 hours as compared to respective DMSO control.
(§2) Cell-cycle and Apoptosis Analysis. Cervical cancer cells were seeded and treated with different concentrations of manzamine A (1) as above. Following trypsinization, one part of the cells was washed with PBS and fixed in chilled 70% ethanol on ice for 30 min. Cells were treated with RNAse A (1 mg/ml) at room temperature for 30 min and stained with propidium iodide (PI: 20 μg/ml). Cell-cycle distribution was analyzed by flow cytometry (Beckman Coulter Epics Elite, Beckman). A minimum of 10,000 events were counted per sample, and the data were analyzed using CXP software (Beckman Coulter) for the proportions of cells in G0/G1, S and G2/M phases of the cell cycle. The second part of the cells were washed twice with PBS and re-suspended in the buffer containing Alexa Fluor conjugated-Annexin-V and PI (Life Technologies, USA). The double staining of the cells was analyzed by flow cytometric analysis. A total of 10,000 cell events were collected to analyze the extent of early, late apoptosis, or necrosis from each sample with the percentages of bound annexin-V^+/PI^−, annexin V^+/PI^+, and annexin V^−/PI^+, respectively.

SiHa cells = assay: Cell cycle distribution by flow cytometry (PI); conditions: 4 μM
Description: as §1, §2

CaSki cells [2] = assay: Cell cycle distribution by flow cytometry (PI); conditions: 4 μM
Description: as §1, §2

HeLa cells [3] = assay: Cell cycle distribution by flow cytometry (PI); conditions: 4 μM, 48 and 72 hours, vs DMSO control
Description: as §1, §2

C33A cells [4] = assay: CellTiter-Glo cell viability assay
Description: (§3) Biological Effect of Marine Sponge Natural Product Manzamine A on Cervical Cancer Cell Growth. We determined the biological activity of manzamine A on cervical cancer cells C33A (HPV-negative), HeLa, SiHa, and CaSki (HPV16/18-positive) using a wide range of concentrations (0-40 μM) at different time points (24, 48 and 72 hours). The CellTiter-Glo cell viability assay determined the cell viability based on metabolically active cells producing ATP in the cell culture. […] Twenty thousand (2×10^4) cells were seeded in ninety-six well plates and treated with a wide range of 1 μM to 40 μM concentration of manzamine A for three time points (24, 48 and 72 h). The experiment was repeated at least three times in quadruplicates from different cell preparations with similar results. Percent viable cells were used to calculate IC50 values and are shown in the inset for all the cell lines at their respective time-points. The percent viability values represent standard error from the mean (mean±SE).
(§4) Cell Culture. Human cervical cancer cell lines C33A, HeLa, SiHa, and CaSki were purchased from the American Type Culture Collection (ATCC, Manassas, VA). Cells were grown in Dulbecco's Modified Eagle Medium (DMEM) medium supplemented with 10% fetal bovine serum, 2 mM L-glutamine, 100 U/ml of penicillin-streptomycin, and maintained at 37° C. with 5% CO2 in a humidified incubator.
(§5) Cell Viability Assay. Cell viability was measured by using Cell Titer-Glo Luminescent Cell Viability Assay Kit (Promega, Leiden, Netherlands) according to the manufacturer's instructions. Briefly, 2×10^4 cells were seeded in 96 well plates. Next day, cells were treated with different concentrations of MA (0-40 μM) for 24, 48 and 72 hours. Percent viability was calculated using the formula: percent (%) viability=100×(Treatment/Control). The IC50 value was calculated from the dose responsive sigmoid curve generated from % viability using GrpaphPad Prism 7 software.

CaSki cells [5] = assay: CellTiter-Glo cell viability assay
Description: as §3, §4, §5

HeLa cells [6] = assay: CellTiter-Glo cell viability assay
Description: as §3, §4, §5

**Q.** What does the source list for `O[C@]12C=C(c3nccc4c3[nH]c3ccccc34)[C@@H]3CCN(CCCC/C=C\CC1)C[C@@]31C[C@@H]3/C=C\CCCCN3[C@H]12` [manzamine A]?
**A.** G2/M cell population (C33A cells [1]): significant decrease; cell population in G0/G1 (C33A cells [1]; vs DMSO control): significant decrease; increase of percentage of G0/G1 cell population vs DMSO control (SiHa cells; 24 hours): 1.2 fold; increase of percentage of G0/G1 cell population vs DMSO control (SiHa cells; 48 hours): 1.2 fold; increase of percentage of G0/G1 cell population vs DMSO control (CaSki cells [2]; 24 hours): 1.4 fold; increase of percentage of G0/G1 cell population vs DMSO control (CaSki cells [2]; 48 hours): 1.5 fold; cell population in G0/G1 (HeLa cells [3]): significant decrease; IC50 (C33A cells [4]; 48 hours): 2.1 µM; IC50 (C33A cells [4]; 72 hours): 1.6 µM; IC50 (CaSki cells [5]; 48 hours): 19.9 µM; IC50 (CaSki cells [5]; 72 hours): 9.4 µM; IC50 (HeLa cells [6]; 48 hours): 4 µM; IC50 (HeLa cells [6]; 72 hours): 5.3 µM
